Reference: US20220249447A1, “CF3-, OCF3-, SCF3-, and SF5-Containing Antibacterial Agents” (Purdue Research Foundation, priority 2019, published 2022)
Converted amounts (≈) assume the structure as drawn.

Legend:
MRSA ATCC 33592 = experiment: MIC, broth microdilution, MRSA ATCC 33592; type: cell-based, methicillin-resistant S. aureus; details: Staphylococcus aureus
Experimental: All MRSA isolates were acquired from BEI Resources. The remaining bacteria were purchased from the American Type Culture Collection (ATCC).
(§1) Bacteria were cultured in cation-adjusted Mueller Hinton Broth (for strains in Tables 1-3) or Brain Heart Infusion broth (for Enterococcus faecium) or Tryptic Soy Broth (all other bacteria) in a 96-well plate at 37° C. for at least 20 hours. The MIC was classified as the lowest concentration where no visual growth of bacteria was observed. The minimum bactericidal concentration (MBC) was tested by spotting 4 μL from wells with no growth onto Tryptic Soy Agar (TSA) plates. Plates were incubated at 37° C. for at least 18 hours before recording the MBC.

E. faecalis ATCC 29212 = experiment: MIC, broth microdilution, E. faecalis ATCC 29212; type: cell-based; details: Enterococcus faecalis, ATCC29212
Experimental: as §1

[1] = system: C. difficile NR-13432 (isolate 6); experiment: MIC against C. difficile NR-13432 (isolate 6); type: cell-based; details: Clostridioides difficile; read-out: MIC C. difficile NR-13432 (isolate 6)
Experimental: as §1

MRSA USA300 cells = experiment: Time-kill assay; type: cell-based; details: for Δlog2 CFU/mL: MRSA USA300, 3× MIC or 6× MIC, up to 24 hours
Experimental: The time-kill analysis was performed as previously described^29. […] Aliquots (100 μL) were collected from each treatment after 0, 2, 4, 8, 12, and 24 hours of incubation at 37° C. and subsequently serially diluted in phosphate-buffered saline (PBS). Bacteria were then transferred to TSA plates and incubated at 37° C. for 18-20 hours before viable CFU/mL was determined (see FIG. 2).

C. difficile ATCC 43255 = experiment: MIC against C. difficile ATCC 43255; type: cell-based; details: Clostridioides difficile, ATCC43255; read-out: MIC C. difficile ATCC 43255
Experimental: as §1

[2] = system: C. difficile NR-32883 (P2); experiment: MIC against C. difficile NR-32883 (P2); type: cell-based; details: Clostridioides difficile; read-out: MIC C. difficile NR-32883 (P2)
Experimental: as §1

[3] = system: L. monocytogenes ATCC 19115; experiment: MIC, broth microdilution, L. monocytogenes ATCC 19115; type: cell-based; details: Listeria monocytogenes, ATCC19115
Experimental: as §1

VRE ATCC 51575 = experiment: MIC, broth microdilution, VRE ATCC 51575; type: cell-based; details: Enterococcus
Experimental: as §1

S. aureus = experiment: MIC, broth microdilution, S. aureus; type: cell-based; details: Staphylococcus aureus
Experimental: as §1

[4] = system: C. difficile NR-32891 (P13); experiment: MIC against C. difficile NR-32891 (P13); type: cell-based; details: Clostridioides difficile; read-out: MIC C. difficile NR-32891 (P13)
Experimental: as §1

[5] = system: C. difficile NR-13435 (isolate 9); experiment: MIC against C. difficile NR-13435 (isolate 9); type: cell-based; details: Clostridioides difficile; read-out: MIC C. difficile NR-13435 (isolate 9)
Experimental: as §1

[6] = system: C. difficile ATCC BAA 1801; experiment: MIC against C. difficile ATCC BAA 1801; type: cell-based; details: Clostridioides difficile, BAA1801; read-out: MIC C. difficile ATCC BAA 1801
Experimental: as §1

[7] = system: C. difficile NR-32895 (P19); experiment: MIC against C. difficile NR-32895 (P19); type: cell-based; details: Clostridioides difficile; read-out: MIC C. difficile NR-32895 (P19)
Experimental: as §1

[8] = system: C. difficile NR-32904 (P30); experiment: MIC against C. difficile NR-32904 (P30); type: cell-based; details: Clostridioides difficile; read-out: MIC C. difficile NR-32904 (P30)
Experimental: as §1

[9] = system: Neisseria gonorrhea strain 181; experiment: MIC against Neisseria gonorrhea strain 181; type: cell-based
Experimental: as §1

MIC [9] [µg/mL]	Structure (SMILES)	MIC (MRSA ATCC 33592) [µg/mL]	MIC (E. faecalis ATCC 29212) [µg/mL]	MIC [1] [µg/mL]	Bactericidal/Bacteriostatic (MRSA USA300 cells)	Δlog2 CFU/mL (MRSA USA300 cells)	MIC (C. difficile ATCC 43255) [µg/mL]	MIC [2] [µg/mL]	MIC [3] [µg/mL]	MIC (VRE ATCC 51575) [µg/mL]	MIC (S. aureus) [µg/mL]	MIC [4] [µg/mL]	MIC [5] [µg/mL]	MIC [6] [µg/mL]	MIC [7] [µg/mL]	MIC [8] [µg/mL]
–	O=C(Nc1nnc(-c2cccs2)o1)c1ccc(S(F)(F)(F)(F)F)cc1 [HSGN-144, 4-(pentafluoro-sulfanyl)-N-(5-(thiophen-2-yl)-1,3,4-oxadiazol-2-yl)benzamide]	0.5 (≈ 1.26 µM)	2 (≈ 5.03 µM)	0.015 (≈ 0.0378 µM)	Bactericidal	3.96	0.125 (≈ 0.315 µM)	0.003 (≈ 0.00755 µM)	1 (≈ 2.52 µM)	2 (≈ 5.03 µM)	0.25 (≈ 0.629 µM)	0.125 (≈ 0.315 µM)	0.015 (≈ 0.0378 µM)	0.03 (≈ 0.0755 µM)	0.06 (≈ 0.151 µM)	0.125 (≈ 0.315 µM)
–	O=C(Nc1nnc(-c2cccs2)o1)c1ccc(OC(F)(F)F)cc1 [HSGN-145, N-(5-(thiophen-2-yl)-1,3,4-oxadiazol-2-yl)-4-(trifluoromethoxy)benzamide]	1 (≈ 2.81 µM)	> 8	0.5 (≈ 1.41 µM)	Bacteriostatic	0.69	0.5 (≈ 1.41 µM)	1 (≈ 2.81 µM)	8 (≈ 22.5 µM)	8 (≈ 22.5 µM)	1 (≈ 2.81 µM)	2 (≈ 5.63 µM)	0.5 (≈ 1.41 µM)	0.5 (≈ 1.41 µM)	1 (≈ 2.81 µM)	1 (≈ 2.81 µM)
0.125 (≈ 0.34 µM)	O=C(Nc1nnc(-c2cccc(F)c2)o1)c1ccc(OC(F)(F)F)cc1 [HSGN-237, N-(5-(3-fluorophenyl)-1,3,4-oxadiazol-2-yl)-4-(trifluoromethoxy)benzamide]	0.5 (≈ 1.36 µM)	1 (≈ 2.72 µM)	0.06 (≈ 0.163 µM)	–	–	0.03 (≈ 0.0817 µM)	0.03 (≈ 0.0817 µM)	0.5 (≈ 1.36 µM)	1 (≈ 2.72 µM)	0.5 (≈ 1.36 µM)	0.125 (≈ 0.34 µM)	0.03 (≈ 0.0817 µM)	0.06 (≈ 0.163 µM)	0.03 (≈ 0.0817 µM)	0.03 (≈ 0.0817 µM)
0.125 (≈ 0.321 µM)	O=C(Nc1nnc(-c2ccc(Cl)s2)o1)c1ccc(OC(F)(F)F)cc1 [HSGN-238, N-(5-(5-chlorothiophen-2-yl)-1,3,4-oxadiazol-2-yl)-4-(trifluoromethoxy)benzamide]	0.25 (≈ 0.641 µM)	1 (≈ 2.57 µM)	0.03 (≈ 0.077 µM)	–	–	0.06 (≈ 0.154 µM)	0.007 (≈ 0.018 µM)	0.5 (≈ 1.28 µM)	1 (≈ 2.57 µM)	0.25 (≈ 0.641 µM)	0.06 (≈ 0.154 µM)	0.015 (≈ 0.0385 µM)	0.03 (≈ 0.077 µM)	0.015 (≈ 0.0385 µM)	0.015 (≈ 0.0385 µM)

Structure (SMILES)	MIC [9] [µg/mL]	MIC (MRSA ATCC 33592) [µg/mL]	MIC (E. faecalis ATCC 29212) [µg/mL]	MIC [1] [µg/mL]	Bactericidal/Bacteriostatic (MRSA USA300 cells)	Δlog2 CFU/mL (MRSA USA300 cells)	MIC (C. difficile ATCC 43255) [µg/mL]	MIC [2] [µg/mL]	MIC [3] [µg/mL]	MIC (VRE ATCC 51575) [µg/mL]	MIC (S. aureus) [µg/mL]	MIC [4] [µg/mL]	MIC [5] [µg/mL]	MIC [6] [µg/mL]	MIC [7] [µg/mL]	MIC [8] [µg/mL]
O=C(Nc1nnc(-c2cccs2)o1)c1ccc(SC(F)(F)F)cc1 [HSGN-148, N-(5-(thiophen-2-yl)-1,3,4-oxadiazol-2-yl)-4-((trifluoromethyl)thio)benzamide]	0.06 (≈ 0.162 µM)	0.5 (≈ 1.35 µM)	4 (≈ 10.8 µM)	0.5 (≈ 1.35 µM)	Bactericidal	4.2	0.5 (≈ 1.35 µM)	0.5 (≈ 1.35 µM)	2 (≈ 5.39 µM)	4 (≈ 10.8 µM)	1 (≈ 2.69 µM)	0.5 (≈ 1.35 µM)	0.5 (≈ 1.35 µM)	0.5 (≈ 1.35 µM)	0.5 (≈ 1.35 µM)	0.5 (≈ 1.35 µM)
